The test system of series [1] is L. major FV1 promastigotes WT. Put plainly: Promastigote growth inhibition, WT line. The format is cell-based. The settings on record: Leishmania major, read-out: EC50 growth.
Series [2] has as its target recombinant Leishmania DHCH1 (Leishmania major, UniProt Q4Q9F9). Put plainly: Inhibition of dehydrogenase. The series is classed as biochemical. The conditions noted are these: for Inhibition of L. major DHCH1: tested at 50 μM, data not shown.
Series [3] deals with host cell (macrophages). Put plainly: Host cell toxicity in the amastigote/macrophage test. The settings on record: macrophage host cells; preliminary studies, unpublished data. The format is cell-based.
In series [4] the test system is L. major FV1 promastigotes WT/pXNG4-DHCH1. The experiment in a line: Promastigote growth inhibition, WT/pXNG4-DHCH1 line. The format is cell-based. The settings on record: Leishmania major, read-out: EC50 growth.
In series [5] the test system is L. major FV1 promastigotes WT/pXNG4-FTL. The experiment in a line: Promastigote growth inhibition, WT/pXNG4-FTL line. The series is classed as cell-based. The settings on record: Leishmania major, read-out: EC50 growth.
The test system of series [6] is L. major FV1 promastigotes dhch1^−/pXNG4-DHCH1. Put plainly: microbe, parasite or virus in culture. The format is cell-based, Leishmania major. The settings on record: for EC50: Leishmania major, read-out: EC50 growth; for Resistance of DHCH1 or FTL overexpressors: DHCH1 or FTL overexpressors vs WT.
Series [7] has as its target human DHFR. The conditions noted are these: read-out: Ki, human DHFR; ref Temple et al., 1982; cited from earlier work.
Series [8] deals with FTL. The conditions noted are these: 100 μM; ref Vickers et al., 2008; cited from earlier work.
In series [9] the test system is L. major FV1 promastigotes dhch1^−/pXNG4-FTL. The experiment in a line: Promastigote growth inhibition, dhch1−/pXNG4-FTL line. The conditions noted are these: Leishmania major, read-out: EC50 growth. The series is classed as cell-based.
In series [10] the target is Leishmania DHFR-TS (Leishmania major, UniProt P07382). The experiment in a line: DHFR activity of the bifunctional L. major DHFR-TS. The format is biochemical. The settings on record: 100 μM; data not shown.
Leishmania DHFR-TS, sequence (P07382 whole entry): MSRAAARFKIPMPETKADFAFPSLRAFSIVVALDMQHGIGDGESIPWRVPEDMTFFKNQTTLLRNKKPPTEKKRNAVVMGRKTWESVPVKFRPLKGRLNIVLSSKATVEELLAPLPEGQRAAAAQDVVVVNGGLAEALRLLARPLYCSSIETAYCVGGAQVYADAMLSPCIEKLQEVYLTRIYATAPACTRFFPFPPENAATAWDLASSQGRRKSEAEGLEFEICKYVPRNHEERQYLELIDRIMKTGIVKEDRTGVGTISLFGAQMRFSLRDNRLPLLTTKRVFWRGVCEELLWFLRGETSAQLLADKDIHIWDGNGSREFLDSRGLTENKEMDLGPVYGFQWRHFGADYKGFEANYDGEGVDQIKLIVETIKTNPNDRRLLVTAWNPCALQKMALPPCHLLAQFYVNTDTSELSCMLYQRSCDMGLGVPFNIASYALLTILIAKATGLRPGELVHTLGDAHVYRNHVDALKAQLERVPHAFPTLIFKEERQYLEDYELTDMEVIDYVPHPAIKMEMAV
The target in series [11] is T1, recombinant Leishmania major DHCH1 (Leishmania major, UniProt Q4Q9F9).
T1 sequence (Q4Q9F9 1-298): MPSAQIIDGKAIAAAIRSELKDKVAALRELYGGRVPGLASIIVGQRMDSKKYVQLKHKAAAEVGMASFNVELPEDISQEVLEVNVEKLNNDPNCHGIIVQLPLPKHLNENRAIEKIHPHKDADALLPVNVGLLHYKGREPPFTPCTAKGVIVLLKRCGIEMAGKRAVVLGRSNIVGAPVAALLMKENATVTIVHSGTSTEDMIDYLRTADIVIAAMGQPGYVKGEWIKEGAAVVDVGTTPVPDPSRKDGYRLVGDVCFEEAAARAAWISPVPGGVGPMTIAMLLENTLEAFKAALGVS
The experiment in a line: Kinetic constants of the dehydrogenase reaction of recombinant L. major DHCH1. The series is classed as biochemical. The conditions noted are these: limit of detection 0.3 μmol min^−1 mg^−1; also with 5 mM (K+)PO4 and 5 mM MgCl2.

The EC50 is the concentration at which the effect is half-maximal. As a reminder, the Ki is a measure of affinity in units of concentration, obtained from inhibition or displacement.

The structures appear in SMILES notation.

For `Nc1nc(O)c2c(n1)NC[C@@H]1CN(c3ccc(C(=O)N[C@@H](CCC(=O)O)C(=O)O)cc3)C(=O)N21` [5,10-CO-THF, (2S)-2-[[4-[(6aR)-3-amino-1,9-dioxo-5,6,6a,7-tetrahydro-4H-imidazo[3,4-f]pteridin-8-yl]benzoyl]amino]pentanedioic acid], the EC50 in series [1] was 1.1 ± 0.04 µM; in [4], 5.1 ± 0.8 µM; in series [5], 3.7 ± 0.5 µM; in [6] it was 4.5 ± 0.5 µM; in series [9], 3.3 ± 0.3 µM. Moreover, the Ki in series [2] is 0.105 µM; in [7], over 100 µM. Further, the “Concentration above which host cell toxicity was seen” value in series [3] is on record as “above 10 μM”. For the same compound, the “Inhibition of the activity of FTL” value in [8] is “did not inhibit”. In addition, in [10], the “Inhibition of the activity of Leishmania DHFR-TS” value was “did not inhibit”.

On to `CC(C)c1nc2nc(N)nc(N)c2nc1C(C)C` [Compound 25, 2,4-Diamino-6,7-diisopropylpteridine], for which the “Inhibition of L. major DHCH1” value in [2] is “not inhibited”.

Regarding `Nc1nc(N)c2cc(Oc3ccc(Cl)c(Cl)c3)ccc2n1` [Compound 34, 2,4-diamino-6-(3,4-dichlorophenoxy)-quinazoline], the EC50 turned out to be 0.68 ± 0.09 µM in series [1], 0.76 ± 0.08 µM in [6] and 0.54 ± 0.06 µM in [9]. For the same compound, the “Inhibition of L. major DHCH1” value in series [2] is “not inhibited”. Moreover, the “Resistance of DHCH1 or FTL overexpressors” value (“Resistance” for short) in [6] was “did not show resistance”.

Regarding `Nc1nc(N)c(CCCc2ccccc2)c(Cc2ccccc2)n1` [Compound 70, 2,4-diamino-6-benzyl-5-(3-phenylpropyl)-pyrimidine], the EC50 in series [1] worked out at 0.44 ± 0.05 µM; in series [6] it was 0.4 ± 0.05 µM; in series [9], 0.42 ± 0.04 µM. For the same compound, the “Inhibition of L. major DHCH1” value in series [2] is given as “not inhibited”. Also, the “Resistance” value in [6] is listed as “did not show resistance”.

On to `CN(Cc1cnc2nc(N)nc(N)c2n1)c1ccc(C(=O)N[C@@H](CCC(=O)O)C(=O)O)cc1` [Methotrexate], for which the values for the EC50 in series [1], in series [6] and in [9] were 0.036 ± 0.001 µM, 0.041 ± 0.002 µM and 0.04 ± 0.002 µM, respectively. In addition, in series [2], the “Inhibition of L. major DHCH1” value is recorded as “not inhibited”. Besides, in [6], the “Resistance” value is recorded as “did not show resistance”.

`NC(=O)c1ccc[n+]([C@@H]2O[C@H](COP(=O)([O-])OP(=O)(O)OC[C@H]3O[C@@H](n4cnc5c(N)ncnc54)[C@H](O)[C@@H]3O)[C@@H](O)[C@H]2O)c1` [NAD^+]: the “Dehydrogenase activity with the coenzyme” value in series [11] was “no activity detected”.

(Values after publication PMC2692627 (Molecular microbiology, 2009).)
